Laboratory results published in US11957713B2, “Compositions and methods for treating diseases and disorders of the central nervous system” (priority 2016, dated 2024).

What was measured:
CD45^+ brain cells = assay: γH2AX (flow cytometry, immunofluorescence) and annexin V in brain after systemic busulfan conditioning; type: in vivo, mice
Protocol: FIGS. 15A15-C depict identification of brain-resident putative μ progenitors by BU-susceptibility. […] Inset is a representative laser-scanning confocal microscope photomicrographs of co-immunostaining for γH2AX, neurons (NeuN), microglia (Ibal) or astrocytes (GFAP). Sca1e bar=[…]. Images were acquired at confocal microscope Radiance 2100 (Bio-Rad) 1×70 at magnification 20× and processed by the Soft Work 3.5.0; reconstruction was performed with Adobe Photoshop CS 8.0 software. Magnification 40× in the insets.
Previous studies have provided evidence for the existence of i) a functionally defined microglia precursor population located in the brain and susceptible to ablation upon administration of a busulfan-based conditioning and that may coincide with endogenous CNS-resident microglial progenitors (μP). Phosphorylated histone 2AX (γH2AX) is a sensitive and specific biomarker to track the cells targeted by busulfan in the brain. Thus, functional brain resident μP could be identified by taking advantage of busulfan and γH2AX, which is a pharmacodynamic marker of its cytotoxicity within these cells. γH2AX was investigated as a biomarker of busulfan cytotoxicity. In particular, the presence, distribution and cellular localization of γH2AX were studied by flow cytometry (FC) and immunofluorescence (IF) on brain slices from mice treated with systemic busulfan conditioning. […] By IF, γH2AX was hardly detectable in control mice, except for some γH2AX^+ foci found in few neuronal cells, mainly localized in the hippocampus (FIG. 16C top picture), where a correlation between physiological neuronal activity and H2AX phosphorylation has previously been shown. […] Similar experiments are on going in mice expressing reporter genes expressed by the promoter of markers of hematopoietic stem cell- and microglia-specific genes, such as Fgd5 or Cx3Cr1 in order to better track busulfan-susceptible cells.

brain-resident μP = assay: Intra-brain (ICV) administration of busulfan through a cannula in the lateral ventricles
[1] = system: bone marrow and brain clonogenic cells; assay: Colony forming unit (CFU) output of bone marrow and brain cells after conditioning; type: in vivo, mice; conditions: busulfan conditioning, 14 days after plating
Protocol: FIG. 6A depicts an experimental scheme for HCT. CFUs were plated from bone marrow (BM) and brain of naïve (UT), BU-treated and irradiated (IRR) mice, as well as from mice previously transplanted with CD45.2 GFP-transduced HSPCs (BU-HCT). FIG. 6B is a graph depicting number of colonies (#CFC) obtained from the tissues of BU and IRR animals. FIG. 6C is a graph depicting number of colonies (#CFC) and of GFP^+ CFCs obtained from the tissues of BU-HCT animals. FIG. 6D is a graph depicting frequency of GFP^+ cells (and lineage differentiation for BM) retrieved by FACS analysis in BM and brain of secondary recipient mice receiving BM or brain cells or peripheral blood mononuclear cells from primary recipients; mice were sacrificed 4 months after transplant.
HSPCs have been identified within extramedullary tissues and thought to be transiently localized at those sites and able to proliferate locally giving rise to tissue-resident myeloid cells, preferentially dendritic cells. Clonogenic potential was referred to the presence of these cells also in the brain, however upon establishment of parabiotic pairs and differently from what observed in other extra-medullary tissues, chimerism between the two animals was not observed in the brain. […]

[2] = system: microglia progenitors, CD45^+c-kit^+ cells; assay: Pretreatment to induce microglia progenitor proliferation; type: in vivo, mice; conditions: single dose of busulfan 25 mg/kg or ten days oral CSF 1R inhibitor
Protocol: These NP formulations were injected ICV in the brain of wild type adult animals that were pretreated with i) a single dose of busulfan 25 mg/kg or ii) ten days of oral administered CSF 1R inhibitor ((Elmore et al., Neuron. […] Five days after NP injection, animals were analyzed for the occurrence of Etoposide-mediated killing of microglia cells and/or their progenitors, using busulfan standard treatment (4 doses of 25 mg/kg) as reference for brain microglia progenitor ablation.

SMILES: CS(=O)(=O)OCCCCOS(C)(=O)=O [busulfan]
- early apoptosis by annexin V staining (CD45^+ brain cells; CD45^+ brain cells, particularly CD11b^+ and c-kit^+, post-busulfan): early apoptosis is also detected
- γH2AX signal by immunofluorescence on brain slices (CD45^+ brain cells; busulfan-treated mice, lateral ventricles, SVZ, RMS): γH2AX^+ signal was increased in nuclei of cells lining the lateral ventricles
- γH2AX signal by flow cytometry (CD45^+ brain cells; busulfan-treated versus control untreated, live CD45^+ cells, 1 and 5 days from the last busulfan dose): increase of γH2AX signal
- neurotoxicity and local inflammation (brain-resident μP; ICV administration of busulfan): extensive neurotoxicity and local inflammation
- transplanted HSPC engraftment (brain-resident μP; ICV administration of busulfan, data not shown): nor able to favor transplanted HSPC engraftment
- exposure of brain-resident μP to busulfan versus systemic drug administration (brain-resident μP; ICV administration, different busulfan formulations, data not shown): not able to guarantee exposure of brain-resident μP to busulfan levels comparable to those reached by systemic drug administration
- CFU output [1]: drastic reduction in the CFU output
- proliferation of microglia progenitors / expansion of CD45^+c-kit^+ cells in brain [2]: induce the proliferation of microglia progenitors and/or expand CD45^+c-kit^+ cells in the brain
